Like-named read-outs stand apart in the source and are kept apart here.
Experiments:
Cbl-b = biological target: T1, Cbl-b (Homo sapiens, UniProt Q13191); experiment: Cbl-b probe displacement HTRF binding assay; details: 0.4 nM Cbl-b, 150 nM BODIPY probe
T1 construct: biotin (biotinylated protein)
Outline: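 Binding IC50 from four-parameter fit of HTRF signal loss, normalised to DMSO (0%) and no-protein (100%) wells. Biotinylated Cbl-b 0.4 nM was preincubated 60 min with compound (20-point 1:2 dilution) before 15 min with 150 nM BODIPY probe; Tb-streptavidin detection.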

Jurkat cells = experiment: IL-2 secretion assay in Jurkat cells activated with CD3/CD28 T Cell Activator; type: cell-based; details: Homo sapiens, 24 h, read-out: IL-2 Secretion (EC50)
Method: Certain compounds were also evaluated in an IL-2 secretion assay. On the day of the assay, a 16 point, 1:2 master serial dilution of each compound was prepared in Opti-MEM to span a final concentration range of 10 μM to 300 pM. Assays were set up in CORNING® tissue culture-treated 384-well microplates containing 60 nL of each dilution. Jurkat cells grown in RPMI-1640 supplemented with 10% FBS, 1% Glutamax, and 1% Pen/Strep were collected, resuspended in Opti-MEM. 50,000 cells/well and added to the compound plates. After a short spin (1200 rpm for 1 min), the plates were incubated at 37° C. for 1 hour. The cells were activated by adding 15 μL of IMMUNOCULT™ Human CD3/CD28 T Cell Activator (STEMCELL Technologies) diluted in Opti-MEM. After 24 h of incubation at 37° C., aliquots of culture supernatants were transferred to OptiPlate-384 (PerkinElmer) microplates. The level of IL-2 secretion in the supernatants was then determined using the IL-2 (human) AlphaLISA Detection Kit (PerkinElmer) according to the manufacturer's recommendations. The AlphaLISA signal was measured using an EnVision plate reader (PerkinElmer). EC50 values were determined by fitting the data to a standard 4-parameter logistic equation. See Table 7 for data for select compounds (IL-2 Secretion (EC50)).

[1] = Jurkat cells, CD3/CD28 T Cell Activator, IL-2 AlphaLISA

T1 sequence (Q13191 whole entry, species assumed): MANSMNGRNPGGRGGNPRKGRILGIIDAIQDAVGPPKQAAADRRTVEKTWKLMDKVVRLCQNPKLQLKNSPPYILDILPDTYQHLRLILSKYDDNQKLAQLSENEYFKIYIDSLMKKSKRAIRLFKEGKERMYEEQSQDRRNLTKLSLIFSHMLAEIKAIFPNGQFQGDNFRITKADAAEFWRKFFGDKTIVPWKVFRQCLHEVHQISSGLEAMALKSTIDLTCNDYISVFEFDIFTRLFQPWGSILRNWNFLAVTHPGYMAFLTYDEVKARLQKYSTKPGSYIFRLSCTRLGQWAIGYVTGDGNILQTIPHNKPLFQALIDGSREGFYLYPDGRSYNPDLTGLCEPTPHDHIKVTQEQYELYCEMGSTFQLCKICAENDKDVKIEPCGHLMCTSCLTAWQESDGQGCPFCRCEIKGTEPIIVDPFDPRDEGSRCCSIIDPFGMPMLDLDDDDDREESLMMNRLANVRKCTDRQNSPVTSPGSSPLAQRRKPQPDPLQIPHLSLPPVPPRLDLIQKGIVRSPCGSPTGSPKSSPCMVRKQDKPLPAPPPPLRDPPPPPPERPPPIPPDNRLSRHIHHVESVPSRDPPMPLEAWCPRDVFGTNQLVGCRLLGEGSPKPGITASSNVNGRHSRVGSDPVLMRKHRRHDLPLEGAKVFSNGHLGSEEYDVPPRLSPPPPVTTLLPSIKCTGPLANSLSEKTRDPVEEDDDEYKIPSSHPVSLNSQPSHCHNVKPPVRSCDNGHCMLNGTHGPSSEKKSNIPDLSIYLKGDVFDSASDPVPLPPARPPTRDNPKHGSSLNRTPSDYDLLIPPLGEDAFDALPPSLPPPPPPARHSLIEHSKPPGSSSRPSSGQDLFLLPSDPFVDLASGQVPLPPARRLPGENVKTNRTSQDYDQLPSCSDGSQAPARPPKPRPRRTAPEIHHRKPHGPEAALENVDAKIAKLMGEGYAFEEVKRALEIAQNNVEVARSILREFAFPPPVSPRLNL

Structure (SMILES) | IC50 (Cbl-b) | EC50 (Jurkat cells; [1]) | EC50 (Jurkat cells; Jurkat)
CC1CC(c2cccc(NC(=O)c3cc(CN4CCC[C@H](C)C4)cn(CC4CC4)c3=O)c2)(c2nncn2C)C1 (mixture of isomers) [Example 78, 1-(cyclopropylmethyl)-N-[3-[3-methyl-1-(4-methyl-1,2,4-triazol-3-yl)cyclobutyl]phenyl]-5-[[(3S)-3-methylpiperidin-1-yl]methyl]-2-oxopyridine-3-carboxamide] | < 100 nM | 100 to 1000 nM | –
C[C@@H]1CN(Cc2cc(C(=O)Nc3cc(-c4ccc(C#N)cc4-c4nccn4C)cc(C4CC4)n3)c(=O)n(C3CC3)c2)CCO1 (single isomer, unassigned) [Example 36] | 100 to 1000 nM | 1000 to 5000 nM | –
Cn1ccnc1-c1cc(C#N)ccc1-c1cc(NC(=O)c2cc(CO)cn(C3CC3)c2=O)nc(C2CC2)c1 (single isomer, unassigned) [Example 37, N-{4-[4-cyano-2-(1-methyl-2-imidazolyl)phenyl]-6-cyclopropyl-2-pyridyl}-1-cyclopropyl-5-(hydroxymethyl)-2-oxo-1,2-dihydronicotinamide] | 100 to 1000 nM | > 5000 nM | –
COCCNCc1cc(C(=O)Nc2cc(-c3ccc(C(=O)OC)cc3-c3ncoc3C)cc(C3CC3)n2)c(=O)n(C2CC2)c1 (single isomer, unassigned) [Example 51, methyl 4-(6-cyclopropyl-2-{1-cyclopropyl-5-[(2-methoxyethylamino)methyl]-2-oxo-1,2-dihydronicotinoylamino}-4-pyridyl)-3-(5-methyl-1,3-oxazol-4-yl)benzoate] | 100 to 1000 nM | 1000 to 5000 nM | –
C[C@H]1CCCN(Cc2cc(C(=O)Nc3cc(-c4ccc(C#N)cc4-c4nncn4C)cc(C4CC4)n3)c(=O)n(C3CC3)c2)C1 [Example 1, N-{4-[4-cyano-2-(4-methyl-4H-1,2,4-triazol-3-yl)phenyl]-6-cyclopropyl-2-pyridyl}-5-{[(S)-3-methyl-1-piperidyl]methyl}-1-cyclopropyl-2-oxo-1,2-dihydronicotinamide] | < 100 nM | – | < 100 nM
CO[C@@H](C)CNCc1cc(C(=O)Nc2cc(-c3ccc(OC(F)F)cc3C(=O)N3CC(F)(F)C3)cc(C3CC3)n2)c(=O)n(C)c1 [Example 87, N-[6-cyclopropyl-4-[2-(3,3-difluoroazetidine-1-carbonyl)-4-(difluoromethoxy)phenyl]pyridin-2-yl]-5-[[[(2S)-2-methoxypropyl]amino]methyl]-1-methyl-2-oxopyridine-3-carboxamide] | – | > 5000 nM | –
CCOc1cc(-c2ccc(Cl)cc2C(=O)N2CC(F)(F)C2)cc(NC(=O)c2cc(CNC[C@@H]3CCCO3)cn(C3CC3)c2=O)n1 [Example 91, N-(4-{4-chloro-2-[(3,3-difluoro-1-azetidinyl)carbonyl]phenyl}-6-ethoxy-2-pyridyl)-5-[({[(S)-tetrahydro-2-furyl]methyl}amino)methyl]-1-cyclopropyl-2-oxo-1,2-dihydronicotinamide] | – | < 100 nM | –
CC(C)Nc1cc(-c2ccc(Cl)cc2C(=O)N2CC(F)(F)C2)cc(NC(=O)c2cc(CNC[C@@H]3CCCO3)cn(C3CC3)c2=O)n1 [Example 92, N-(4-{4-chloro-2-[(3,3-difluoro-1-azetidinyl)carbonyl]phenyl}-6-(isopropylamino)-2-pyridyl)-5-[({[(S)-tetrahydro-2-furyl]methyl}amino)methyl]-1-cyclopropyl-2-oxo-1,2-dihydronicotinamide] | – | < 100 nM | –
N#Cc1ccc(-c2cc(NC(=O)c3cc(CNC[C@@H]4CCCO4)cn(CC(F)(F)F)c3=O)nc(C3CC3)c2)c(C(=O)N2CC(F)(F)C2)c1 [Example 93, N-[4-[4-cyano-2-(3,3-difluoroazetidine-1-carbonyl)phenyl]-6-cyclopropylpyridin-2-yl]-2-oxo-5-[[[(2S)-oxolan-2-yl]methylamino]methyl]-1-(2,2,2-trifluoroethyl)pyridine-3-carboxamide] | – | < 100 nM | –

Continued, in another order:

IC50 (Cbl-b) | EC50 (Jurkat cells; [1]) | Structure (SMILES) | EC50 (Jurkat cells; Jurkat)
< 100 nM | < 100 nM | CC1CC(c2cccc(NC(=O)c3cc(CN4CCC[C@H](C)C4)cn(C4CC4)c3=O)c2)(c2nncn2C)C1 (mixture of isomers) [Example 76, 1-cyclopropyl-N-[3-[3-methyl-1-(4-methyl-1,2,4-triazol-3-yl)cyclobutyl]phenyl]-5-[[(3S)-3-methylpiperidin-1-yl]methyl]-2-oxopyridine-3-carboxamide] | –
< 100 nM | < 100 nM | COCCNCc1cc(C(=O)Nc2cc(-c3ccc(C#N)cc3-c3ncoc3C)cc(C3CC3)n2)c(=O)n(C2CC2)c1 (single isomer, unassigned) [Example 50, N-{4-[4-cyano-2-(5-methyl-1,3-oxazol-4-yl)phenyl]-6-cyclopropyl-2-pyridyl}-1-cyclopropyl-5-[(2-methoxyethylamino)methyl]-2-oxo-1,2-dihydronicotinamide] | –
< 100 nM | < 100 nM | O=C(Nc1cc(-c2ccc(OC(F)F)cc2C(=O)N2CC(F)(F)C2)cc(C2CC2)n1)c1cc(CNCC2CCCO2)cn(C2CC2)c1=O (stereo in doubt) [Example 84, N-(6-cyclopropyl-4-{2-[(3,3-difluoro-1-azetidinyl)carbonyl]-4-difluoromethoxyphenyl}-2-pyridyl)-5-[({[(R)-tetrahydro-2-furyl]methyl}amino)methyl]-1-cyclopropyl-2-oxo-1,2-dihydronicotinamide] | –
< 100 nM | < 100 nM | C[C@H]1CCCN(Cc2cc(C(=O)Nc3cc(-c4ccc(F)cc4-c4nncn4C)cc(C4CC4)n3)c(=O)n(C3CC3)c2)C1 [Example 2, 1-Cyclopropyl-N-[6-cyclopropyl-4-[4-fluoro-2-(4-methyl-1,2,4-triazol-3-yl)phenyl]pyridin-2-yl]-5-[[(3S)-3-methylpiperidin-1-yl]methyl]-2-oxopyridine-3-carboxamide] | –
– | < 100 nM | COCCNCc1cc(C(=O)Nc2cc(-c3ccc(F)cc3C(=O)N3CC(F)C3)cc(C3CC3)n2)c(=O)n(C2CC2)c1 [Example 67, N-(6-cyclopropyl-4-{4-fluoro-2-[(3-fluoro-1-azetidinyl)carbonyl]phenyl}-2-pyridyl)-1-cyclopropyl-5-[(2-methoxyethylamino)methyl]-2-oxo-1,2-dihydronicotinamide] | –
– | < 100 nM | COCCNCc1cc(C(=O)Nc2cc(-c3ccc(F)cc3C(=O)N3CC(F)(F)C3)cc(C3CC3)n2)c(=O)n(C2CC2)c1 [Example 68, N-(6-cyclopropyl-4-{2-[(3,3-difluoro-1-azetidinyl)carbonyl]-4-fluorophenyl}-2-pyridyl)-1-cyclopropyl-5-[(2-methoxyethylamino)methyl]-2-oxo-1,2-dihydronicotinamide] | –
– | < 100 nM | CO[C@@H](C)CNCc1cc(C(=O)Nc2cc(-c3ccc(Cl)cc3C(=O)N3CC(F)(F)C3)cc(OCC(F)(F)F)n2)c(=O)n(C2CC2)c1 [Example 82] | –
– | < 100 nM | CO[C@@H](C)CNCc1cc(C(=O)Nc2cc(-c3ccc(Cl)cc3C(=O)N3CC(F)(F)C3)cc(OCC(F)F)n2)c(=O)n(C2CC2)c1 [Example 83] | –
– | < 100 nM | CC(C)CNCc1cc(C(=O)Nc2cc(-c3ccc(OC(F)F)cc3C(=O)N3CC(F)(F)C3)cc(C3CC3)n2)c(=O)n(C2CC2)c1 [Example 85, N-(6-cyclopropyl-4-{2-[(3,3-difluoro-1-azetidinyl)carbonyl]-4-difluoromethoxyphenyl}-2-pyridyl)-1-cyclopropyl-5-[(isobutylamino)methyl]-2-oxo-1,2-dihydronicotinamide] | –
– | < 100 nM | Cn1cc(CNC[C@@H]2CCCO2)cc(C(=O)Nc2cc(-c3ccc(OC(F)F)cc3C(=O)N3CC(F)(F)C3)cc(C3CC3)n2)c1=O [Example 88, N-[6-cyclopropyl-4-[2-(3,3-difluoroazetidine-1-carbonyl)-4-(difluoromethoxy)phenyl]pyridin-2-yl]-1-methyl-2-oxo-5-[[[(2S)-oxolan-2-yl]methylamino]methyl]pyridine-3-carboxamide] | –
– | < 100 nM | CO[C@@H](C)CNCc1cc(C(=O)Nc2cc(-c3ccc(OC(F)F)cc3C(=O)N3CC(F)(F)C3)cc(C3CC3)n2)c(=O)n(C2CC2)c1 [Example 89, N-(6-cyclopropyl-4-{2-[(3,3-difluoro-1-azetidinyl)carbonyl]-4-difluoromethoxyphenyl}-2-pyridyl)-5-{[(S)-2-methoxypropylamino]methyl}-1-cyclopropyl-2-oxo-1,2-dihydronicotinamide] | –
– | < 100 nM | O=C(Nc1cc(-c2ccc(Cl)cc2C(=O)N2CC(F)(F)C2)cc(C2CC2)n1)c1cc(CNC[C@@H]2CCCO2)cn(C2CC2)c1=O [Example 90, N-(4-{4-chloro-2-[(3,3-difluoro-1-azetidinyl)carbonyl]phenyl}-6-cyclopropyl-2-pyridyl)-5-[({[(S)-tetrahydro-2-furyl]methyl}amino)methyl]-1-cyclopropyl-2-oxo-1,2-dihydronicotinamide] | –

From patent publication US20260116868A1 (Arcus Biosciences, Inc., priority 2023, published 2026)
